Measured values from the supplement of paper PMC11061612.

Tests used:
SN-38 = compound: CCc1c2c(nc3ccc(O)cc13)-c1cc3c(c(=O)n1C2)COC(=O)[C@]3(O)CC [SN-38]; settings: max 0.3 µM
How it was run: (§1)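 After 24 hours at 37°C and 5% CO2 in 1536-well plates holding 7.5 μl of DMEM/F12 or RPMI with 10% FBS, cancer cell lines were dosed for 72 hours, with final DMSO typically 0.2%. Viability came from CellTiter-Glo 2.0 luminescence, scaled between the means of blank wells and DMSO wells. A non-linear mixed effects model fitted a two-parameter logistic curve to each dose response to give the single-agent IC50.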

AZD2811 = compound: CCN(CCO)CCCOc1ccc2c(Nc3cc(CC(=O)Nc4cccc(F)c4)[nH]n3)ncnc2c1 [AZD2811]; settings: max 1 µM
How it was run: as §1

Prexasertib = compound: COc1cccc(OCCCN)c1-c1cc(Nc2cnc(C#N)cn2)n[nH]1 [Prexasertib]; settings: max 1 µM
How it was run: as §1

Dasatinib = compound: CC1=C(C(=CC=C1)Cl)NC(=O)C2=CN=C(S2)NC3=CC(=NC(=N3)C)N4CCN(CC4)CCO [Dasatinib]; settings: max 2 µM
How it was run: as §1

Crizotinib = compound: C[C@@H](Oc1cc(-c2cnn(C3CCNCC3)c2)cnc1N)c1c(Cl)ccc(F)c1Cl [Crizotinib]; settings: max 10 µM
How it was run: as §1

Palbociclib = compound: CC(=O)c1c(C)c2cnc(Nc3ccc(N4CCNCC4)cn3)nc2n(C2CCCC2)c1=O [Palbociclib]; settings: max 10 µM
How it was run: as §1

AZD5153 = compound: COc1nnc2ccc(N3CCC(c4ccc(OCCN5CCN(C)C(=O)[C@H]5C)cc4)CC3)nn12 [AZD5153]; settings: max 1 µM
How it was run: as §1

AZD0156 = compound: CN(C)CCCOc1ccc(-c2ccc3ncc4c(c3c2)n(C2CCOCC2)c(=O)n4C)cn1 [AZD0156]; settings: max 3 µM
How it was run: as §1

Taselisib = compound: Cc1nc(-c2cn3c(n2)-c2ccc(-c4cnn(C(C)(C)C(N)=O)c4)cc2OCC3)n(C(C)C)n1 [Taselisib]; settings: max 10 µM
How it was run: as §1

Venetoclax = compound: CC1(C)CCC(CN2CCN(c3ccc(C(=O)NS(=O)(=O)c4ccc(NCC5CCOCC5)c([N+](=O)[O-])c4)c(Oc4cnc5[nH]ccc5c4)c3)CC2)=C(c2ccc(Cl)cc2)C1 [Venetoclax]; settings: max 1 µM
How it was run: as §1

Selumetinib = compound: Cn1cnc2c(F)c(Nc3ccc(Br)cc3Cl)c(C(=O)NOCCO)cc21 [Selumetinib]; settings: max 10 µM
How it was run: as §1

Gefitinib = compound: COc1cc2ncnc(Nc3ccc(F)c(Cl)c3)c2cc1OCCCN1CCOCC1 [Gefitinib]; settings: max 10 µM
How it was run: as §1

AZD1775 = compound: C=CCn1c(=O)c2cnc(Nc3ccc(N4CCN(C)CC4)cc3)nc2n1-c1cccc(C(C)(C)O)n1 [AZD1775]; settings: max 3 µM
How it was run: as §1

Savolitinib = compound: C[C@@H](c1ccc2nccn2c1)n1nnc2ncc(-c3cnn(C)c3)nc21 [Savolitinib]; settings: max 1 µM
How it was run: as §1

Doxorubicin = compound: COc1cccc2c1C(=O)c1c(O)c3c(c(O)c1C2=O)C[C@@](O)(C(=O)CO)C[C@@H]3O[C@H]1C[C@H](N)[C@H](O)[C@H](C)O1 [Doxorubicin]; settings: max 1 µM
How it was run: as §1

Olaparib = compound: O=C(c1cc(Cc2n[nH]c(=O)c3ccccc23)ccc1F)N1CCN(C(=O)C2CC2)CC1 [Olaparib]
How it was run: as §1

AZD5991 = compound: Cc1c2c(nn1C)CSCc1cc(n(C)n1)CSc1cc(c3ccccc3c1)OCCCc1c(C(=O)O)n(C)c3c-2c(Cl)ccc13 [AZD5991]; settings: max 1 µM
How it was run: as §1

AZD1390 = compound: CC(C)n1c(=O)n(C)c2cnc3cc(F)c(-c4ccc(OCCCN5CCCCC5)nc4)cc3c21 [AZD1390]; settings: max 0.3 µM
How it was run: as §1

Trametinib = compound: CC(=O)Nc1cccc(-n2c(=O)n(C3CC3)c(=O)c3c(Nc4ccc(I)cc4F)n(C)c(=O)c(C)c32)c1 [Trametinib]; settings: max 1 µM
How it was run: as §1

Lapatinib = compound: CS(=O)(=O)CCNCc1ccc(-c2ccc3ncnc(Nc4ccc(OCc5cccc(F)c5)c(Cl)c4)c3c2)o1 [Lapatinib]; settings: max 10 µM
How it was run: as §1

SG3199 = compound: CC1=CN2[C@@H](C1)C=NC3=CC(=C(C=C3C2=O)OC)OCCCCCOC4=C(C=C5C(=C4)N=C[C@@H]6CC(=CN6C5=O)C)OC [SG3199]; settings: max 0.001 µM
How it was run: as §1

AZD8186 = compound: C[C@@H](Nc1cc(F)cc(F)c1)c1cc(C(=O)N(C)C)cc2c(=O)cc(N3CCOCC3)oc12 [AZD8186]; settings: max 3 µM
How it was run: as §1

AZD4320 = compound: CN(CC[C@H](CSC1=CC=CC=C1)NC2=C(C=C(C=C2)S(=O)(=O)NC(=O)C3=CC=C(C=C3)N4CCC(CC4)[C@H](C5=CC=CC=C5C6=CC=C(C=C6)Cl)O)S(=O)(=O)C(F)(F)F)CCO [AZD4320]; settings: max 1 µM
How it was run: as §1

Capivasertib = compound: C1CN(CCC1(C(=O)N[C@@H](CCO)C2=CC=C(C=C2)Cl)N)C3=NC=NC4=C3C=CN4 [Capivasertib]
How it was run: as §1

AZD6738 = compound: C[C@@H]1COCCN1C2=NC(=NC(=C2)C3(CC3)[S@](=N)(=O)C)C4=C5C=CNC5=NC=C4 [AZD6738]; settings: max 10 µM
How it was run: as §1

AZD7648 = compound: Cc1cc2ncnn2cc1Nc1ncc2c(n1)n(C1CCOCC1)c(=O)n2C [AZD7648]; settings: max 10 µM
How it was run: as §1

Alisertib = compound: COc1cc(Nc2ncc3c(n2)-c2ccc(Cl)cc2C(c2c(F)cccc2OC)=NC3)ccc1C(=O)O [Alisertib]; settings: max 10 µM
How it was run: as §1

Row | Cell Line | IC50, cell viability 72 h (SN-38) | IC50, cell viability 72 h (AZD2811) | IC50, cell viability 72 h (Prexasertib) | IC50, cell viability 72 h (Dasatinib) | IC50, cell viability 72 h (Crizotinib) | IC50, cell viability 72 h (Palbociclib) | IC50, cell viability 72 h (AZD5153) | IC50, cell viability 72 h (AZD0156) | IC50, cell viability 72 h (Taselisib) | IC50, cell viability 72 h (Venetoclax) | IC50, cell viability 72 h (Selumetinib) | IC50, cell viability 72 h (Gefitinib) | IC50, cell viability 72 h (AZD1775) | IC50, cell viability 72 h (Savolitinib) | IC50, cell viability 72 h (Doxorubicin) | IC50, cell viability 72 h (Olaparib; max 10 µM) | IC50, cell viability 72 h (AZD5991) | IC50, cell viability 72 h (AZD1390) | IC50, cell viability 72 h (Trametinib) | IC50, cell viability 72 h (Lapatinib) | IC50, cell viability 72 h (SG3199) | IC50, cell viability 72 h (AZD8186) | IC50, cell viability 72 h (AZD4320) | IC50, cell viability 72 h (Capivasertib; max 10 µM) | IC50, cell viability 72 h (AZD6738) | IC50, cell viability 72 h (AZD7648) | IC50, cell viability 72 h (Alisertib) | IC50, cell viability 72 h (Olaparib; max 3 µM) | IC50, cell viability 72 h (Capivasertib; max 3 µM)
1 | HuH-7 (Hepatocellular Carcinoma) | > 300 nM | > 1000 nM | > 1000 nM | > 2000 nM | > 10000 nM | > 10000 nM | > 1000 nM | > 3000 nM | > 10000 nM | > 1000 nM | > 10000 nM | > 10000 nM | > 3000 nM | > 1000 nM | > 1000 nM | > 10000 nM | > 1000 nM | > 300 nM | > 1000 nM | > 10000 nM | > 1 nM | > 3000 nM | > 1000 nM | > 10000 nM | > 10000 nM | > 10000 nM | > 10000 nM | – | –
2 | KMRC-20 (Kidney Carcinoma) | 32.8 nM | > 1000 nM | 31.4 nM | 875 nM | > 10000 nM | > 10000 nM | > 1000 nM | > 3000 nM | > 10000 nM | > 1000 nM | > 10000 nM | > 10000 nM | 1290 nM | > 1000 nM | > 1000 nM | > 10000 nM | > 1000 nM | > 300 nM | > 1000 nM | > 10000 nM | > 1 nM | > 3000 nM | > 1000 nM | > 10000 nM | > 10000 nM | > 10000 nM | 6920 nM | – | –
3 | L-428 (Hodgkin's Lymphoma) | 46.9 nM | > 1000 nM | 23.3 nM | > 2000 nM | > 10000 nM | > 10000 nM | 130 nM | > 3000 nM | > 10000 nM | > 1000 nM | > 10000 nM | > 10000 nM | 429 nM | > 1000 nM | 106 nM | > 10000 nM | > 1000 nM | > 300 nM | > 1000 nM | > 10000 nM | > 1 nM | > 3000 nM | 475 nM | > 10000 nM | 5400 nM | > 10000 nM | > 10000 nM | – | –
4 | LCLC-97TM1 (Non-Small Cell Lung Carcinoma) | 75.6 nM | > 1000 nM | 28.3 nM | > 2000 nM | 4840 nM | > 10000 nM | 153 nM | > 3000 nM | 3360 nM | > 1000 nM | 3190 nM | > 10000 nM | 1380 nM | > 1000 nM | > 1000 nM | > 10000 nM | > 1000 nM | > 300 nM | 26.4 nM | > 10000 nM | > 1 nM | > 3000 nM | > 1000 nM | > 10000 nM | 2280 nM | > 10000 nM | 3440 nM | – | –
5 | MHH-CALL-2 (B-Lymphoblastic Leukemia) | 2.33 nM | > 1000 nM | 93.4 nM | > 2000 nM | 679 nM | > 10000 nM | > 1000 nM | > 3000 nM | 9370 nM | > 1000 nM | > 10000 nM | > 10000 nM | 1070 nM | > 1000 nM | – | – | 150 nM | > 300 nM | > 1000 nM | > 10000 nM | – | > 3000 nM | > 1000 nM | > 10000 nM | 3260 nM | > 10000 nM | 3120 nM | > 3000 nM | –
6 | NCI-H209 (Small Cell Lung Carcinoma) | 0.637 nM | 800 nM | 18.1 nM | > 2000 nM | > 10000 nM | > 10000 nM | > 1000 nM | > 3000 nM | > 10000 nM | 978 nM | > 10000 nM | > 10000 nM | 373 nM | > 1000 nM | 281 nM | 1030 nM | > 1000 nM | > 300 nM | > 1000 nM | > 10000 nM | > 1 nM | > 3000 nM | 18.4 nM | > 10000 nM | 2110 nM | > 10000 nM | 7740 nM | – | –
7 | NCI-H720 (Other Solid Carcinomas) | > 300 nM | 652 nM | 441 nM | – | – | – | – | > 3000 nM | – | – | – | – | 1480 nM | – | > 1000 nM | > 10000 nM | – | – | – | – | > 1 nM | – | – | – | 6580 nM | > 10000 nM | – | – | 812 nM
8 | OE21 (Esophageal Squamous Cell Carcinoma) | 214 nM | > 1000 nM | 43.3 nM | 1280 nM | > 10000 nM | > 10000 nM | 256 nM | > 3000 nM | 1030 nM | > 1000 nM | > 10000 nM | 3380 nM | 718 nM | > 1000 nM | > 1000 nM | > 10000 nM | > 1000 nM | > 300 nM | > 1000 nM | 6830 nM | > 1 nM | > 3000 nM | > 1000 nM | 5200 nM | – | > 10000 nM | > 10000 nM | – | –
